Laboratory results taken from patent publication US8278083B2 (priority 2004, dated 2012).
Like-named read-outs stand apart in the source and are kept apart here.

Tests used:
HIV [1] = type: cell-based; conditions: cells exposed to INA-treated HIV; FIG. 6
HIV-1(MN) = type: cell-based; conditions: INA-treated HIV-1(MN); for Avg. Capsid Protein conc. Day 7 / Avg. Capsid Protein conc. Day 14 / Avg. Capsid Protein conc. Day 21: AA2 clone 1 cells; for Culture Result Neg / Culture Result Pos: of quadruplicate cultures
SIV Mne = type: cell-based
neuraminidase = type: biochemical, influenza virus H3N2
HIV [2] = type: binding; conditions: compared with non-treated virus; p24 ELISA; FIG. 7
Zaire EBOV = type: cell-based, Zaire Ebola virus
influenza virus = type: cell-based
influenza HA = type: cell-based, influenza virus; conditions: pH 5.0
[3] = test system: influenza virus strain H3N2 (X-31); type: cell-based
HeLa cell membrane = type: cell-based; conditions: HeLa cells, INA 20 or 100 μM + UV; FIG. 17
SIV = type: cell-based; conditions: INA-treated SIV; FIG. 5
tumor cells = type: cell-based
EBOV-GFP = type: cell-based, Zaire Ebola virus

SMILES: [N-]=[N+]=Nc1cccc2c(I)cccc12 [INA, 1,5-iodonaphthyl azide]
- luciferase expression in JC53BL cells (HIV [1]): substantially no luciferase expression is detected
- Avg. Capsid Protein conc. Day 7 (HIV-1(MN); 1/dil 10^1): 9,201 pg/ml
- Avg. Capsid Protein conc. Day 14 (HIV-1(MN); 1/dil 10^1): 0 pg/mL
- Avg. Capsid Protein conc. Day 21 (HIV-1(MN); 1/dil 10^1): 0 pg/mL
- Culture Result Neg (HIV-1(MN); 1/dil 10^1, day 21): 4
- Culture Result Pos (HIV-1(MN); 1/dil 10^1, day 21): 0
- Avg. Capsid Protein conc. Day 7 (HIV-1(MN); 1/dil 10^2): 0 pg/mL
- Avg. Capsid Protein conc. Day 14 (HIV-1(MN); 1/dil 10^2): 0 pg/mL
- Avg. Capsid Protein conc. Day 21 (HIV-1(MN); 1/dil 10^2): 0 pg/mL
- Culture Result Neg (HIV-1(MN); 1/dil 10^2, day 21): 4
- Culture Result Pos (HIV-1(MN); 1/dil 10^2, day 21): 0
- Avg. Capsid Protein conc. Day 7 (HIV-1(MN); 1/dil 10^3): 0 pg/mL
- Avg. Capsid Protein conc. Day 14 (HIV-1(MN); 1/dil 10^3): 0 pg/mL
- Avg. Capsid Protein conc. Day 21 (HIV-1(MN); 1/dil 10^3): 0 pg/mL
- Culture Result Neg (HIV-1(MN); 1/dil 10^3, day 21): 4
- Culture Result Pos (HIV-1(MN); 1/dil 10^3, day 21): 0
- Avg. Capsid Protein conc. Day 7 (HIV-1(MN); 1/dil 10^4): 0 pg/mL
- Avg. Capsid Protein conc. Day 14 (HIV-1(MN); 1/dil 10^4): 0 pg/mL
- Avg. Capsid Protein conc. Day 21 (HIV-1(MN); 1/dil 10^4): 0 pg/mL
- Culture Result Neg (HIV-1(MN); 1/dil 10^4, day 21): 4
- Culture Result Pos (HIV-1(MN); 1/dil 10^4, day 21): 0
- Avg. Capsid Protein conc. Day 7 (HIV-1(MN); 1/dil 10^5): 0 pg/mL
- Avg. Capsid Protein conc. Day 14 (HIV-1(MN); 1/dil 10^5): 0 pg/mL
- Avg. Capsid Protein conc. Day 21 (HIV-1(MN); 1/dil 10^5): 0 pg/mL
- Culture Result Neg (HIV-1(MN); 1/dil 10^5, day 21): 4
- Culture Result Pos (HIV-1(MN); 1/dil 10^5, day 21): 0
- Avg. Capsid Protein conc. Day 7 (HIV-1(MN); 1/dil 10^6): 0 pg/mL
- Avg. Capsid Protein conc. Day 14 (HIV-1(MN); 1/dil 10^6): 0 pg/mL
- Avg. Capsid Protein conc. Day 21 (HIV-1(MN); 1/dil 10^6): 0 pg/mL
- Culture Result Neg (HIV-1(MN); 1/dil 10^6, day 21): 4
- Culture Result Pos (HIV-1(MN); 1/dil 10^6, day 21): 0
- 1/TCID50/ml (HIV-1(MN); Reed and Muench, day 21): 0
- infectivity blocked (SIV Mne; 200 μM INA, SIV (P-28) and HIV (P-24) expression): 100%
- production of the viral protein p28 (SIV Mne; 200 μM INA, up to 11 days after INA treatment, FIG. 4): no detectable production
- 1/TCID50/ml (SIV Mne; INA-treated SIV Mne, Reed and Muench, day 21): 0
- Culture Result Pos (SIV Mne; INA-treated SIV, 1/dil 10^1, number of cultures productively infected, day 21): 0
- Culture Result Neg (SIV Mne; INA-treated SIV, 1/dil 10^1, number of cultures uninfected, day 21): 0
- viral infectivity of SIV (SIV Mne; as little as 50 μM INA, FIG. 4): reduced to essentially zero
- catalytic activity of the viral envelope enzyme neuraminidase (neuraminidase): not affected
- binding of INA-treated HIV to neutralizing antibodies 2G12, B12 and 4E10 (HIV [2]): interacts substantially the same as the non-treated virus
- virus growth (genome copies in culture supernatant) (Zaire EBOV): did not show any growth
- pH dependent mixing of lipids from the viral envelope with lipids of the target cell (R-18 dequenching) (influenza virus): not affected
- redistribution of viral envelope proteins into the cell membrane (125INA incorporation into HA) (influenza HA): almost no detectable signal
- infectivity of the influenza virus [3]: reduced the infectivity of the influenza virus to zero
- mobile fraction of the lipid (DiO) (HeLa cell membrane): not affected
- protein mobile fraction (CD4-GFP) (HeLa cell membrane): reduced to background level
- fusion of SIV with the target cell at the plasma membrane level (SIV): blocked fusion of SIV with the target cell
- ability of tumor cells to divide and form colonies (tumor cells): blocked their ability to divide and form colonies
- concentration sufficient to inactivate EBOV completely (EBOV-GFP): 100 to 200 µM
- infectivity of EBOV-GFP (EBOV-GFP; 24-96 h): complete loss of infectivity
